{"source": "patent US20240245693A1", "about": "“COMPOSITIONS AND METHODS OF TISSUE REGENERATION THERAPY” (The Regents of the University of California, priority 2021, published 2024)", "key": {"[1]": {"test_system": "mouse splinted skin wound", "experiment": "mouse excisional splinted skin wound healing model, topical application", "format": "in vivo", "settings": "daily topical application at 5 micromolar in 10% DMSO vehicle; FIG. 5", "source_text": "FIGS. 1A-1B show wound healing in mouse excisional skin wound splinting model, wherein a splinting ring is tightly adhered to the skin around the wound, thereby preventing local skin contraction. The wound is thus healed through a process of granulation and re-epithelialization similar to that occurring in human. The figures present a time course healing of skin splinted wound in wild type (WT) (FIG. 1A) and Npas2 KO mice (FIG. 1B).\nSkin of experimental animals such as mice are similarly composed of multiple tissues; however excisional wound heals faster in part due to active wound contraction. Therefore, mouse wound healing model employs a silicone stent around the excisional skin, which prevents contraction allowing the healing through re-epithelialization and granulation tissue formation. The mouse splinted skin wound model has provided a common experimental platform, which allows investigation of critical molecules for skin wound healing using genetically manipulated mice. Knockout mutation of wound inflammation related molecules such as Sphingosine kinase-1 or mast cell proteases was reported to delay the wound closure and the proliferative phase of healing, respectively.\nHigh throughput screening (HTS) of well-defined chemical compounds was performed using Npas2-LacZ reporter mouse skin fibroblasts. […]"}, "human dermal fibroblasts": {"test_system": "human dermal fibroblasts", "experiment": "in vitro collagen synthesis assay using human dermal fibroblasts", "format": "cell-based", "procedure": "Without serotonin (5-HT) supplementation, the majority of selected compounds maintained fibroblastic collagen synthesis.\n(§1) High throughput screening (HTS) of well-defined chemical compounds was performed using Npas2-LacZ reporter mouse skin fibroblasts. Chemical genomics analysis of hit compounds indicated the involvement of monoamine-related pathways for regulating Npas2 expression. To identify the regulatory mechanism of Npas2 in human dermal fibroblasts, a library of lentivirus expression vectors containing human monoamine-related genes was selected for over-expression study."}, "[2]": {"test_system": "human periodontal ligament MSC (PDLSC)", "experiment": "in vitro osteogenic differentiation assay using human periodontal ligament stem cells (PDLSC)", "format": "cell-based", "settings": "supplementation of compound; FIG. 8"}, "Npas2": {"test_system": "Npas2", "experiment": "Npas2 expression in human dermal fibroblasts", "format": "cell-based", "settings": "serotonin supplementation; FIG. 9F", "procedure": "FIGS. 9A-9G show the effect of HTR1B and HTR2B on human dermal fibroblasts.\nas §1"}}, "note": "Entries after “also recorded” stand apart in the source; their conditions may differ.", "data": [{"molecule": "CN1CCC(=C2c3ccccc3C=Cc3ccccc32)CC1", "note": "[Cyproheptadine, 1-methyl-4-(2-tricyclo[9.4.0.03,8]pentadeca-1(15),3,5,7,9,11,13-heptaenylidene)piperidine]", "values": [{"measurement": "wound closure and skin tissue regeneration", "setting": "[1]", "value": "significant wound closure and skin tissue regeneration"}]}, {"molecule": "N#Cc1cc(CN2CCC(Nc3ncnc4sc(Cl)cc34)CC2)ccc1F", "note": "[PRX-08066, 5-[[4-[(6-chlorothieno[2,3-d]pyrimidin-4-yl)amino]piperidin-1-yl]methyl]-2-fluorobenzonitrile]", "values": [{"measurement": "fibroblastic collagen synthesis", "setting": "human dermal fibroblasts; in the presence of 10 μM 5-HT supplementation, FIG. 4", "value": "high level of collagen synthesis"}, {"measurement": "wound closure and skin tissue regeneration", "setting": "[1]", "value": "significant wound closure and skin tissue regeneration"}, {"measurement": "osteogenic differentiation of PDLSC", "setting": "[2]", "value": "effective compound; also recorded: enhanced the differentiation of PDLSC"}]}, {"molecule": "NCCc1c[nH]c2ccc(O)cc12", "note": "[serotonin]", "values": [{"measurement": "in vitro collagen synthesis of human dermal fibroblasts", "setting": "human dermal fibroblasts; serotonin supplementation, FIG. 9E", "value": "decreased"}, {"measurement": "Npas2 expression of human dermal fibroblasts", "setting": "Npas2", "value": "increased"}]}]}
